What was measured:
Format in all cases: biochemical
[1] = system: Rabbit Skeletal myofibrils (rabbit psoas muscle); assay: Myofibril ATPase assay (PK/LDH NADH-coupled), skeletal myofibrils
Procedure, shortened: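 Rabbit psoas myofibrils in pCa (PIPES/CaCl2/EGTA, pH 7.0) buffer; ADP coupled via PK/LDH to NADH loss, read at 340 nm every 1.5–2 min for 75 min. Slopes normalized to vehicle (100%) and fit to 4-parameter logistic for EC25, plus EC50 for inhibitors.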

[2] = molecular target: T1, Porcine Ventricle myofibrils (left ventricle of Yucatan minipigs) (Sus scrofa, UniProt P79293); assay: Myofibril ATPase assay (PK/LDH NADH-coupled), ventricle myofibrils
T1 construct: Myofibrils from porcine cardiac muscle was isolated from the left ventricle of Yucatan minipigs; tissue Exemplar Genetics; host or cells: left ventricle of Yucatan minipigs
Procedure, shortened: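 Yucatan minipig left-ventricle myofibrils; ATPase measured by PK/LDH-coupled NADH loss at 340 nm, read every 1.5-2 min for 75 min. Slopes normalized to vehicle (100%) and fit to 4-parameter logistic model; EC25 and, for inhibitors, EC50 calculated.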

Porcine Atria myofibrils = assay: Myofibril ATPase assay (PK/LDH NADH-coupled), atria myofibrils
Procedure, shortened: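 Porcine atrial myofibril ATPase followed via PK/LDH-coupled NADH depletion, absorbance at 340 nm read every 1.5-2 min over 75 min. Slopes (mAU/min) normalized to vehicle as 100% and fit to a 4-parameter logistic; EC25% derived, plus EC50% for inhibitors.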

T1 sequence (P79293 whole entry): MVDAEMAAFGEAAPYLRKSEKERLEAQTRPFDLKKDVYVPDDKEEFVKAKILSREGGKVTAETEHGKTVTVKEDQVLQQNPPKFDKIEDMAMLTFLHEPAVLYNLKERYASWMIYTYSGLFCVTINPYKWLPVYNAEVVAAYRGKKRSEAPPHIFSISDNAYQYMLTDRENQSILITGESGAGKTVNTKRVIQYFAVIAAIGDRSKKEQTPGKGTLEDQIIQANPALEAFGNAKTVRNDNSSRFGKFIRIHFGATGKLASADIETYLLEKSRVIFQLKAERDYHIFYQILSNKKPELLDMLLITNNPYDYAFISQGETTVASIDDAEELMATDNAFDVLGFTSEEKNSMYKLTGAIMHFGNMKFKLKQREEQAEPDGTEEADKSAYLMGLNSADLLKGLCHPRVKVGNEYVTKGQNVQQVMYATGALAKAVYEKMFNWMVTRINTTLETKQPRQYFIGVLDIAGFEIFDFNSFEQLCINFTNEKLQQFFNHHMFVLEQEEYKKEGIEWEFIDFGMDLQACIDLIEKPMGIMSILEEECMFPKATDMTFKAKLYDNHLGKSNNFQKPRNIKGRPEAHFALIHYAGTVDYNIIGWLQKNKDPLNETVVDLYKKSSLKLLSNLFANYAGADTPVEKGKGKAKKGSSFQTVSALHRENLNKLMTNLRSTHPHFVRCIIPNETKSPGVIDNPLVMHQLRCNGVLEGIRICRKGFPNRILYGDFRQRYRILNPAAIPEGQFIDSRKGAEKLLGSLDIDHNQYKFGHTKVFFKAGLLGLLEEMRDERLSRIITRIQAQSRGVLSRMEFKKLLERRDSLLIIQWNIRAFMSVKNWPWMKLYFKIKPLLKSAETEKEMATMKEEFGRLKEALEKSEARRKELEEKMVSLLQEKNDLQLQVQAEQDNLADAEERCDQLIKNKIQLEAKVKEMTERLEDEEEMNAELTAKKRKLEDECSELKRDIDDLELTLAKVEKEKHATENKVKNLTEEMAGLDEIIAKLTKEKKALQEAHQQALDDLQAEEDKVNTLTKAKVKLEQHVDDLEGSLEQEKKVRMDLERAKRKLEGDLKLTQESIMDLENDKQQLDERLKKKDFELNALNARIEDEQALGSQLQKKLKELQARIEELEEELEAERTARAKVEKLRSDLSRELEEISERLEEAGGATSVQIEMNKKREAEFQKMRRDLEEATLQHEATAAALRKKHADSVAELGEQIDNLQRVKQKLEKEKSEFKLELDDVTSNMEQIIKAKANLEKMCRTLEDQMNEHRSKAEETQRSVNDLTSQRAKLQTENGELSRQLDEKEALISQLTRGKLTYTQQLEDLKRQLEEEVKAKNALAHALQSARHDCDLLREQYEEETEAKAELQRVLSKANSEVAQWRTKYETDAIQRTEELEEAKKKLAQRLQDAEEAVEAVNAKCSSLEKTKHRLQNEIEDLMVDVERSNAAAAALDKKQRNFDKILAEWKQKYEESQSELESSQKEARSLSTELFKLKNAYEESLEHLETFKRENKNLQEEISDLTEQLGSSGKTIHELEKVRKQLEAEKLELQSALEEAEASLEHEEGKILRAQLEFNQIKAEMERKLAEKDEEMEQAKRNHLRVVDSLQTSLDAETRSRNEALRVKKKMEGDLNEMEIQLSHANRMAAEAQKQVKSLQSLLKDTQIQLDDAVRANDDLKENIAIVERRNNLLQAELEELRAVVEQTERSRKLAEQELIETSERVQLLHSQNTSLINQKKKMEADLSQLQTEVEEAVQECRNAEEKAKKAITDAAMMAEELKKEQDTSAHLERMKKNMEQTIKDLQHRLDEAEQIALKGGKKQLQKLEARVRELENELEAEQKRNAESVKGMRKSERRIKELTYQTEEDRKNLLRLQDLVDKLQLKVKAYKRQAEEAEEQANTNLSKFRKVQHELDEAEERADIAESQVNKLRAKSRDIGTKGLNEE

Rabbit Psoas IC25 ([1]; Table 8) [µM]	Porcine Ventricle IC25 ([2]; Table 8) [µM]	Porcine Atria IC25 (Porcine Atria myofibrils; Table 8) [µM]	Rabbit Psoas IC25 ([1]; Table 7) [µM]	Porcine Ventricle IC25 ([2]; Table 7) [µM]	Porcine Atria IC25 (Porcine Atria myofibrils; Table 7) [µM]	SMILES
68.36	3.83	0.21	–	–	–	Cc1nc(C#N)cnc1[C@@H](CO)NC(=O)CN1Cc2c(ccc(F)c2F)NC1=O [Compound B354]
0.07	0.14	0.05	–	–	–	Cc1nc(C#N)cnc1[C@H](CO)NC(=O)CN1Cc2c(ccc(F)c2F)NC1=O [Compound B355]
0.13	0.33	0.10	–	–	–	C[C@H](NC(=O)CN1Cc2cc(F)c(F)cc2NC1=O)c1ncc(C#N)cc1F [Compound B358]
13.87	100.00	4.96	–	–	–	Cc1nsc([C@@H](C)NC(=O)CN2Cc3c(ccc(F)c3F)NC2=O)n1 [Compound B359]
100.00	9.49	44.86	–	–	–	C[C@@H](NC(=O)CN1Cc2c(ccc(F)c2F)NC1=O)c1cc2c(cn1)N(C)CCO2 [Compound B360]
100.00	100.00	100.00	–	–	–	C[C@H](NC(=O)CN1Cc2c(ccc(F)c2F)NC1=O)c1cc2c(cn1)N(C)CCO2 [Compound B361]
0.52	1.04	100.00	–	–	–	O=C(CN1Cc2c(ccc(F)c2F)NC1=O)N[C@@H]1COCc2cc(F)cnc21 [Compound B362]
100.00	100.00	100.00	–	–	–	O=C(CN1Cc2c(ccc(F)c2F)NC1=O)N[C@H]1COCc2cc(F)cnc21 [Compound B363]
100.00	100.00	20.41	–	–	–	C[C@@H](NC(=O)CN1Cc2c(ccc(F)c2F)NC1=O)c1cc2c(cn1)OCCN2 [Compound B364]
100.00	100.00	100.00	–	–	–	C[C@H](NC(=O)CN1Cc2c(ccc(F)c2F)NC1=O)c1cc2c(cn1)OCCN2 [Compound B365]
–	–	–	100	100	70.94	N#Cc1cnc2c(c1)CC[C@H]2NC(=O)CN1C(=O)Nc2cccnc2C12CC2 [Compound N1]
–	–	–	4.055	34.26	17.14	N#Cc1cnc2c(c1)CC[C@@H]2NC(=O)CN1C(=O)Nc2cccnc2C12CC2 [Compound N2]
–	–	–	18.85	100	2.59	C[C@@H](NC(=O)CN1C(=O)Nc2ccc(C#N)nc2C12CC2)c1ncc(C#N)cc1F [Compound N3]
–	–	–	0.1067	0.474	0.07	C[C@H](NC(=O)CN1C(=O)Nc2ccc(C#N)nc2C12CC2)c1ncc(C#N)cc1F [Compound N4]
–	–	–	0.0178	0.1154	0.07	N#Cc1cc(F)c2c(c1)OC[C@H]2NC(=O)CN1Cc2c(ccnc2C(F)(F)F)NC1=O [Compound N5]
–	–	–	2.918	38.22	2.82	N#Cc1cc(F)c2c(c1)OC[C@@H]2NC(=O)CN1Cc2c(ccnc2C(F)(F)F)NC1=O [Compound N6]
–	–	–	0.0355	0.266	0.11	N#Cc1nccc2c1CN(CC(=O)N[C@@H]1COc3cc(F)cc(F)c31)C(=O)N2 [Compound N7]
–	–	–	0.3271	13.21	2.20	N#Cc1nccc2c1CN(CC(=O)N[C@H]1COc3cc(F)cc(F)c31)C(=O)N2 [Compound N8]
–	–	–	0.4579	13.44	0.82	O=C(CN1Cc2cnccc2NC1=O)N[C@@H]1COc2cc(F)cc(F)c21 [Compound N10]
–	–	–	100	100	100.00	O=C(CN1Cc2cnccc2NC1=O)N[C@H]1COc2cc(F)cc(F)c21 [Compound N11]
–	–	–	100	100	7.63	C[C@@H](NC(=O)CN1C(=O)Nc2ccc(C#N)nc2C12CC2)c1ccc(F)cc1F [Compound N12]
–	–	–	0.063	0.8569	0.07	C[C@H](NC(=O)CN1C(=O)Nc2ccc(C#N)nc2C12CC2)c1ccc(F)cc1F [Compound N13]
–	–	–	100	100	1.16	C[C@@H](NC(=O)CN1C(=O)Nc2ccc(C#N)nc2C12CC2)c1ncc(F)cc1F [Compound N14]
–	–	–	0.197	2.788	0.07	C[C@H](NC(=O)CN1C(=O)Nc2ccc(C#N)nc2C12CC2)c1ncc(F)cc1F [Compound N15, 2-{6′-Cyano-2′-oxo-1′H-spiro[cyclopropane-1,4′-pyrido[3,2-d]pyrimidin]-3′-yl}-N-[(1S)-1-(3,5-difluoropyridin-2-yl)ethyl]acetamide]
–	–	–	1.645	100	0.60	C[C@@H](NC(=O)CN1C(=O)Nc2cccnc2C12CC2)c1ccc(C#N)cn1 [Compound N16]
–	–	–	100	100	75.12	C[C@H](NC(=O)CN1C(=O)Nc2cccnc2C12CC2)c1ccc(C#N)cn1 [Compound N17]
–	–	–	0.03098	1.324	0.12	O=C(CN1Cc2c(ccnc2C(F)(F)F)NC1=O)N[C@@H]1COc2cc(F)cc(F)c21 [Compound N18]
–	–	–	2.245	11.46	2.00	O=C(CN1Cc2c(ccnc2C(F)(F)F)NC1=O)N[C@H]1COc2cc(F)cc(F)c21 [Compound N19]

Source: patent US12509431B2, “1,4-dihydroquinazolinone compounds and uses thereof” (Edgewise Therapeutics, Inc., priority 2022, dated 2025)
